Our source for the IC50 values is patent US7566712B2, “Biaryl piperazinyl-pyridine analogues” (Neurogen Corporation, priority 2003, dated 2009).

SMILES strings stand for the structures.

The target in the experiment is T1, human capsaicin receptor (Homo sapiens, UniProt Q8NER1).
T1 construct: pBK-CMV expression construct encoding the full length human capsaicin receptor; expressed in transfected cells
Briefly: Calcium mobilization assay, determination of antagonist activity (Example 6). Format: cell-based. The following applies: determined as described in Example 6 (calcium mobilization, antagonist activity); Table II. A digest of the protocol: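 HEK293 clonal lines stably expressing full-length human capsaicin receptor, loaded with Fluo-3 AM in KRH buffer pH 7.4, 1–2 h at 37 °C. Compounds (1–5 μM final) preincubated 0.5–6 h at room temperature, then capsaicin at its EC50 added. FLIPR/Fluoroskan calcium signal; IC50 as 50% decrease of capsaicin response.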

T1 sequence (Q8NER1 whole entry): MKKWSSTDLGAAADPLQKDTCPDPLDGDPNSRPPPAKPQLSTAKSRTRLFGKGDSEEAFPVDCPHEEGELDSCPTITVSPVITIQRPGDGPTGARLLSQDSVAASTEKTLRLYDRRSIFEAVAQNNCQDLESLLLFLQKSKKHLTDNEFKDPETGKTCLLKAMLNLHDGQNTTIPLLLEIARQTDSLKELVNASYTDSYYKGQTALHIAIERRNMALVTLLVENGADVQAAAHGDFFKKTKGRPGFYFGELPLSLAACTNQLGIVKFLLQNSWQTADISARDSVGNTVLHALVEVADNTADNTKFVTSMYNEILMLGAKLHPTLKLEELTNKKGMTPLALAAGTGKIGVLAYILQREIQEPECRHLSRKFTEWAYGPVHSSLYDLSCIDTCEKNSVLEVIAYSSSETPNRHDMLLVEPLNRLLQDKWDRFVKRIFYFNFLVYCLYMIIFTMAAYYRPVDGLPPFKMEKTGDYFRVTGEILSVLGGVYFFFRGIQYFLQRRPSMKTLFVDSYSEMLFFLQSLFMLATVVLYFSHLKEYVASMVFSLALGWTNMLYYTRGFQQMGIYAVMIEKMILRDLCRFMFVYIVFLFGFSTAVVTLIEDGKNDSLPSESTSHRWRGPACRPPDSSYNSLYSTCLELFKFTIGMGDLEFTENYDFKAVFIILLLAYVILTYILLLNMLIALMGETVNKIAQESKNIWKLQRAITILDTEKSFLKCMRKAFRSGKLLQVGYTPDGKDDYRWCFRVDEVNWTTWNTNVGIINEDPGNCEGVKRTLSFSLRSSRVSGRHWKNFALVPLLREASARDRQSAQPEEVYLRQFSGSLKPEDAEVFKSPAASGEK

Turning to `CC(=O)N1CCN(c2nc(-c3ccc(F)c(Cl)c3)cc(N3CCN(c4ncccc4C(F)(F)F)CC3)n2)CC1` [Example 625, 2-(4-acetylpiperazin-1-yl)-4-(3-chloro-4-fluorophenyl)-6-{4-[3-(trifluoromethyl)pyridin-2-yl]piperazin-1-yl}pyrimidine], the IC50 was ≤ 1 µM.
Under `CCC(=O)N1CCN(c2nc(-c3ccc(F)c(Cl)c3)cc(N3CCN(c4ncccc4C(F)(F)F)CC3)n2)CC1` [Example 626, 4-(3-chloro-4-fluorophenyl)-2-(4-propionylpiperazin-1-yl)-6-{4-[3-(trifluoromethyl)pyridin-2-yl]piperazin-1-yl}pyrimidine] stands ≤ 1 µM; under `C[C@@H]1CN(c2nc(-c3ccc(F)c(Cl)c3)cc(N3CCN(c4ncccc4C(F)(F)F)CC3)n2)[C@@H](C)CN1` [Example 627, 4-(3-chloro-4-fluorophenyl)-2-[(2S,5R)-2,5-dimethylpiperazin-1-yl]-6-{4-[3-(trifluoromethyl)pyridin-2-yl]piperazin-1-yl}pyrimidine], ≤ 1 µM; under `C[C@@H]1CN(c2nc(-c3ccc(F)c(Cl)c3)cc(N3CCN(c4ncccc4C(F)(F)F)CC3)n2)[C@@H](C)CN1C` [Example 628, 4-(3-chloro-4-fluorophenyl)-6-{4-[3-(trifluoromethyl)pyridin-2-yl]piperazin-1-yl}-2-[(2S,5R)-2,4,5-trimethylpiperazin-1-yl]pyrimidine], ≤ 1 µM.
Under `CC1CNCCN1c1nc(-c2ccc(F)c(Cl)c2)cc(N2CCN(c3ncccc3C(F)(F)F)CC2)n1` (centres unmarked) [Example 629, 4-(3-chloro-4-fluorophenyl)-2-(2-methylpiperazin-1-yl)-6-{4-[3-(trifluoromethyl)pyridin-2-yl]piperazin-1-yl}pyrimidine] stands ≤ 1 µM; under `CC1CN(C)CCN1c1nc(-c2ccc(F)c(Cl)c2)cc(N2CCN(c3ncccc3C(F)(F)F)CC2)n1` (centres unmarked) [Example 630, 4-(3-chloro-4-fluorophenyl)-2-(2,4-dimethylpiperazin-1-yl)-6-{4-[3-(trifluoromethyl)pyridin-2-yl]piperazin-1-yl}pyrimidine], ≤ 1 µM.
Under `Cc1cncc(-c2cc(N3CCN(c4ncccc4C(F)(F)F)CC3)nc(N3CCOCC3)n2)c1` [Example 631, 4-(4-(5-methylpyridin-3-yl)-6-{4-[3-(trifluoromethyl)pyridin-2-yl]piperazin-1-yl}pyrimidin-2-yl)morpholine] stands ≤ 1 µM; under `CC1CN(c2cc(-c3ccc(F)c(Cl)c3)nc(N3CCOCC3)n2)CCN1c1ccccn1` (centres unmarked) [Example 632, 4-[4-(3-chloro-4-fluorophenyl)-6-(3-methyl-4-pyridin-2-ylpiperazin-1-yl)pyrimidin-2-yl]morpholine], ≤ 1 µM; under `CCc1nccn1-c1nc(-c2cccc(Cl)c2)cc(N2CCN(c3ncccc3C(F)(F)F)CC2)n1` [Example 633, 4-(3-chlorophenyl)-2-(2-ethyl-1H-imidazol-1-yl)-6-{4-[3-(trifluoromethyl)pyridin-2-yl]peperazin-1-yl}pyrimidine], ≤ 1 µM.
For the compound `CC1CN(c2nc(-c3ccc(F)c(Cl)c3)cc(N3CCN(c4ncccc4C(F)(F)F)CC3)n2)CCN1C` (centres unmarked) [Example 634, 4-(3-chloro-4-fluorophenyl)-2-(3,4-dimethylpiperazin-1-yl)-6-{4-[3-(trifluoromethyl)pyridin-2-yl]piperazin-1-yl}pyrimidine], the IC50 is ≤ 1 µM.
With `Fc1ccc(-c2cc(N3CCN(c4ncccc4C(F)(F)F)CC3)nc(-c3ncco3)n2)cc1Cl` [Example 635, 4-(3-chloro-4-fluorophenyl)-2-(1,3-oxazol-2-yl)-6-{4-[3-(trifluoromethyl)pyridin-2-yl]piperazin-1-yl}pyrimidine], the 50% inhibitory concentration (IC50) was ≤ 1 µM.
Under `CC1(C)CN(c2nc(-c3ccc(F)c(Cl)c3)cc(N3CCN(c4ncccc4C(F)(F)F)CC3)n2)CCO1` [Example 636, 4-(4-(3-chloro-4-fluorophenyl)-6-{4-[3-(trifluoromethyl)pyridin-2-yl]piperazin-1-yl}pyrimidin-2-yl)-2,2-dimethylmorpholine] stands ≤ 1 µM; under `Cc1cn(-c2nc(-c3cccc(Cl)c3)cc(N3CCN(c4ncccc4C(F)(F)F)CC3)n2)c(C)n1` [Example 637, 4-(3-chlorophenyl)-2-(2,4-dimethyl-1H-imidazol-1-yl)-6-(4-[3-(trifluoromethyl)pyridin-2-yl]piperazin-1-yl}pyrimidine], ≤ 1 µM; under `Cc1cc(-c2cc(N3CCN(c4ncccc4C(F)(F)F)CC3)nc(Cl)n2)ccc1F` [Example 638, 2-chloro-4-(4-fluoro-3-methylphenyl)-6-{4-[3-(trifluoromethyl)pyridin-2-yl]piperazin-1-yl}pyrimidine], ≤ 1 µM.
Under `CNc1nc(-c2ccc(F)c(Cl)c2)cc(N2CCN(c3ncccc3C(F)(F)F)CC2)n1` [Example 639, 4-(3-chloro-4-fluorophenyl)-N-methyl-6-{4-[3-(trifluoromethyl)pyridin-2-yl]piperazin-1-yl}pyrimidin-2-amine] stands ≤ 1 µM; under `Cc1cc(-c2cc(N3CCN(c4ncccc4C(F)(F)F)CC3)nc(N(C)C(C)C)n2)ccc1F` [Example 640, 4-(4-fluoro-3-methylphenyl)-N-isopropyl-N-methyl-6-{4-[3-(trifluoromethyl)pyridin-2-yl]piperazin-1-yl}pyrimidin-2-amine], ≤ 1 µM; under `Cc1cc(-c2cc(N3CCN(c4ncccc4C(F)(F)F)CC3)nc(N3CCNC(C)C3)n2)ccc1F` (centres unmarked) [Example 641, 4-(4-fluoro-3-methylphenyl)-2-(3-methylpiperazin-1-yl)-6-{4-[3-(trifluoromethyl)pyridin-2-yl]piperazin-1-yl}pyrimidine], ≤ 1 µM.
Under `Cc1cc(-c2cc(N3CCN(c4ncccc4C(F)(F)F)CC3)nc(N3CCCCC3C)n2)ccc1F` (centres unmarked) [Example 642, 4-(4-fluoro-3-methylphenyl)-2-(2-methylpiperidin-1-yl)-6-{4-[3-(trifluoromethyl)pyridin-2-yl]piperazin-1-yl}pyrimidine] stands ≤ 1 µM; under `Cc1cc(-c2cc(N3CCN(c4ncccc4C(F)(F)F)CC3)nc(N3CCN(C(=O)OC(C)(C)C)CC3)n2)ccc1F` [Example 643, tert-butyl 4-(4-(4-fluoro-3-methylphenyl)-6-{4-[3-(trifluoromethyl)pyridin-2-yl]piperazin-1-yl}pyrimidin-2-yl)piperazine-1-carboxylate], ≤ 1 µM; under `CC(C)N(CCO)c1nc(-c2ccc(F)c(Cl)c2)cc(N2CCN(c3ncccc3C(F)(F)F)CC2)n1` [Example 644, 2-[(4-(3-chloro-4-fluorophenyl)-6-{4-[3-(trifluoromethyl)pyridin-2-yl]piperazin-1-yl}pyrimidin-2-yl)(isopropyl)amino]ethanol], ≤ 1 µM.
Turning to `Cc1cc(-c2cc(N3CCN(c4ncccc4C(F)(F)F)CC3)nc(N3CCNCC3)n2)ccc1F` [Example 645, 4-(4-fluoro-3-methylphenyl)-2-piperazin-1-yl-6-{4-[3-(trifluoromethyl)pyridin-2-yl]piperazin-1-yl}pyrimidine], the IC50 is ≤ 1 µM.
Under `Cc1cccnc1N1CCN(c2cc(-c3ccc(F)c(Cl)c3)nc(N3CCOCC3)n2)CC1C` (centres unmarked) [Example 646, 4-{4-(3-chloro-4-fluorophenyi)-6-[3-methyl-4-(3-methylpyridin-2-yl)piperazin-1-yl]pyrimidin-2-yl}morpholine] stands ≤ 1 µM; under `CCc1nc(C)cn1-c1nc(-c2cccc(Cl)c2)cc(N2CCN(c3ncccc3C(F)(F)F)CC2)n1` [Example 647, 4-(3-chlorophenyl)-2-(2-ethyl-4-methyl-1H-imidazol-1-yl)-6-(4-[3-(trifluoromethyl)pyridin-2-yl]piperazin-1-yl}pyrimidine], ≤ 1 µM; under `CCc1nccn1-c1nc(-c2ccc(F)c(Cl)c2)cc(N2CCN(c3ncccc3C(F)(F)F)CC2)n1` [Example 648, 4-(3-chloro-4-fluorophenyl)-2-(2-ethyl-1H-imidazol-1-yl)-6-{4-[3-(trifluoromethyl)pyridin-2-yl]piperazin-1-yl}pyrimidine], ≤ 1 µM.
Under `Fc1ccc(-c2cc(N3CCN(c4ncccc4C(F)(F)F)CC3)nc(SCc3ccccc3)n2)cc1Cl` [Example 649, 2-(benzylthio)-4-(3-chloro-4-fluorophenyl)-6-{4-[3-(trifluoromethyl)pyridin-2-yl]piperazin-1-yl}pyrimidine] stands ≤ 1 µM; under `O=S(=O)(Cc1ccccc1)c1nc(-c2ccc(F)c(Cl)c2)cc(N2CCN(c3ncccc3C(F)(F)F)CC2)n1` [Example 650, 2-(benzylsulfonyl)-4-(3-chloro-4-fluorophenyl)-6-{4-[3-(trifluoromethyl)pyridin-2-yl]piperazin-1-yl}pyrimidine], ≤ 1 µM; under `CC(C)c1nccn1-c1nc(-c2ccc(F)c(Cl)c2)cc(N2CCN(c3ncccc3C(F)(F)F)CC2)n1` [Example 651, 4-(3-chloro-4-fluorophenyl)-2-(2-isopropyl-1H-imidazo-1-yl)-6-{4-[3-(trifluoromethyl)pyridin-2-yl]piperazin-1-yl}pyrimidine], ≤ 1 µM.
Under `CN(C)C(=O)CN1CCN(c2nc(-c3ccc(F)c(Cl)c3)cc(N3CCN(c4ncccc4C(F)(F)F)CC3)n2)CC1` [Example 652, 2-[4-(4-(3-chloro-4-fluorophenyl)-6-{4-[3-(trifluoromethyl)pyridin-2 yl]piperazin-1-yl}pyrimidin-2-yl)piperazin-1-yl]-N,N-dimethylacetamide] stands ≤ 1 µM; under `CNC(=O)C1CCN(c2nc(-c3ccc(F)c(Cl)c3)cc(N3CCN(c4ncccc4C(F)(F)F)CC3)n2)CC1` [Example 653, 1-(4-(3-chloro-4-fluorophenyl)-6-{4-[3-(trifluoromethyl)pyridin-2-yl]piperazin-1-yl}pyrimidin-2-yl)-N-methylpiperidine-4-carboxamide], ≤ 1 µM.
